Data set [1] concerns Skeletonema costatum. Briefly: Toxicity against Skeletonema costatum. It is filed as cell-based. As to conditions: over 72 hours. As for the experimental part: The toxicity of a quaternary ammonium compound or an LDHI composition comprising the quaternary ammonium compound may be evaluated by testing against Skeletonema costatum and determining EC50 values in the aquatic environment. Also the percentage biodegradation may be measured after 28 days in seawater.
Toxicity was tested against Skeletonema costatum and EC50 values determined (over 72 hours).

A short description of data set [2]: Biodegradation in seawater, OECD TG 306 28 day method. The following applies: OECD TG 306, 28 days. As for the experimental part:
Environmental experiments were performed to test biodegradation and toxicity. The biodegradation tests used the standard OECD Guideline for Testing of Chemicals TG 306 (Biodegradability in Seawater) 28 day method (version adopted 17 Jul. 1992) for testing biodegradation of chemicals in seawater.

The term EC50 denotes the concentration giving half of the maximal effect. Higher therefore signals a need for much substance. `CCCCCCCCCCCCCC[P+](CCCC)(CCCC)CCCC.[Cl-]` [TTPC, tributyl tetradecylphosphonium chloride] registered an EC50 in data set [1] of 0.016 µg/mL. The “Biodegradation after 28 days” value in data set [2] amounted to 11%.

For the origin of these results see US10550304B2, “Quaternary ammonium compounds and gas hydrate inhibitor compositions” (M-I DRILLING FLUIDS UK LIMITED, priority 2013, dated 2020).
